{"source": "patent US20080051466A1", "about": "“Isoalpha acid based protein kinase modulation cancer treatment” (Metaproteomics, LLC, priority 2006, published 2008)", "key": {"LPS/3T3-L1 adipocytes [1]": {"tested_on": "LPS/3T3-L1 adipocytes", "assay": "Adiponectin secretion in LPS/3T3-L1 adipocytes", "format": "cell-based, murine", "settings": "100 ng/ml LPS; for induction of adiponectin secretion: any of the doses tested"}, "[2]": {"tested_on": "insulin-resistant 3T3-L1 adipocytes", "assay": "Adiponectin secretion from insulin-resistant 3T3-L1 adipocytes", "format": "cell-based, murine", "settings": "50.0 μg/ml", "experimental": "3T3-L1 cells were seeded at an initial density of 1×10^4 cells/cm^2 in 96-well plates. For two days, the cells were allowed grow to reach confluence. Following confluence, the cells were forced to differentiate into adipocytes by the addition of differentiation medium; this medium consisted of (1) 10% FBS/DMEM (high glucose); (2) 0.5 mM methylisobutylxanthine; (3) 0.5 μM dexamethasone and (4) 10 μg/ml insulin (MDI medium). From Day 3 through Day 5, the medium was changed to post-differentiation medium consisting of 10 μg/ml insulin in 10% FBS/DMEM.\nBriefly, on Day 6, cells were maintained in serum-free media containing 0.5% bovine serum albumin (BSA) for three hours and then treated with 1 μg insulin/ml plus solvent or insulin plus test material. […] Twenty-four hours later, the supernatant medium was sampled for adiponectin determination.\n(§1) Adiponectin Assay—The adiponectin secreted into the medium was quantified using the Mouse Adiponectin Quantikine® Immunoassay kit with no modifications (R&D Systems, Minneapolis, Minn.).\nSubstituting {relative adiponectin secretion/[concentration])} for the independent variable v/[S] and {relative adiponectin secretion} for the dependant variable {v}, produced a relationship of the form y=mx+b. […]"}, "[3]": {"tested_on": "TNFα-treated 3T3-L1 adipocytes", "assay": "Adiponectin secretion from TNFα-treated 3T3-L1 adipocytes", "format": "cell-based, murine", "settings": "for increase of adiponectin secretion in the presence of TNFα: optimal concentration; for Concentration of maximum adiponectin secretion: over four doses", "experimental": "3T3-L1 cells were seeded at an initial density of 1×10^4 cells/cm^2 in 96-well plates. For two days, the cells were allowed grow to reach confluence. Following confluence, the cells were forced to differentiate into adipocytes by the addition of differentiation medium; this medium consisted of (1) 10% FBS/DMEM (high glucose); (2) 0.5 mM methylisobutylxanthine; (3) 0.5 μM dexamethasone and (4) 10 μg/ml insulin (MDI medium). From Day 3 through Day 5, the medium was changed to post-differentiation medium consisting of 10% FBS in DMEM. […] On Day 6, the supernatant medium was sampled for adiponectin determination.\nas §1"}, "LPS/3T3-L1 adipocytes [4]": {"tested_on": "LPS/3T3-L1 adipocytes", "assay": "IL-6 secretion in LPS/3T3-L1 adipocytes", "format": "cell-based, murine", "settings": "100 ng LPS/ml, D5 3T3-L1"}, "NF-kBp65": {"tested_on": "NF-kBp65", "assay": "NF-kBp65 nuclear translocation in TNFα-treated 3T3-L1 adipocytes", "format": "cell-based, murine", "settings": "2.5 and 5.0 μg/ml, three or 24 hours following TNFα", "method": "Cell Culture and Treatment—Following differentiation 3T3-L1 adipocytes were maintained in post-differentiation medium for an additional 40 days. […] Hops derivatives and the positive control pioglitazone were tested at concentrations of 2.5, and 5.0 μg/ml. Test materials were added 1 hour prior to and nuclear extracts were prepared three and 24 hours following treatment with TNFα.\nELISA-3T3-L1 adipocytes were maintained in growth media for 40 days following differentiation. Nuclear NF-kBp65 was determined using the TransAM™ NF-kB kit from Active Motif (Carlsbad, Calif.) was used with no modifications. Jurkat nuclear extracts provided in the kit were derived from cells cultured in medium supplemented with 50 ng/ml TPA (phorbol, 12-myristate, 13 acetate) and 0.5 μM calcium ionophore A23187 for two hours at 37° C. immediately prior to harvesting.\nProtein assay—Nuclear protein was quantified using the Active Motif Fluorescent Protein Quantification Kit."}, "[5]": {"tested_on": "A549 pulmonary epithelial cells", "assay": "PGE2 biosynthesis in A549 cells stimulated by mite dust allergen", "format": "cell-based, human", "settings": "10 μg/ml, mite dust allergen 1000 ng/ml, 18 h", "experimental": "The filtrate was termed mite dust allergen and used to test for induction of PGE2 biosynthesis in A549 pulmonary epithelial cells.\nMite allergen was added to the culture medium to achieve a final concentration of 1000 ng/ml. Eighteen hours later, the media were sampled for PGE2 determination."}}, "note": "Marks after values point to notes of the source that are not given here."}
{"molecule": "CC(=O)Oc1ccccc1C(=O)O", "note": "[Aspirin, aspirin]", "values": [{"measurement": "induction of adiponectin secretion", "setting": "LPS/3T3-L1 adipocytes [1]", "result": "failed to induce adiponectin secretion"}]}
{"molecule": "CC(C)CCC1=C(O)C(C(=O)C(C)C)=C(O)C(CCC(C)C)(CCC(C)C)C1=O", "note": "[Hexahydrocolupulone (HHCL)]", "values": [{"measurement": "Adiponectin/IL-6", "setting": "[2]", "result": "0.60#"}]}
{"molecule": "COc1ccc2c(c1)c(CC(=O)O)c(C)n2C(=O)c1ccc(Cl)cc1", "note": "[Indomethacin, indomethacin]", "values": [{"measurement": "increase of adiponectin secretion in the presence of TNFα", "setting": "[3]; 10 ng TNFα/ml", "result": 94, "unit": "%"}, {"measurement": "Concentration of maximum adiponectin secretion", "setting": "[3]; 10 ng TNFα/ml", "result": 5.0, "unit": "µg/mL"}, {"measurement": "Concentration of maximum adiponectin secretion", "setting": "[3]; 10 ng TNFα/ml, listed as indomethacin", "result": 2.5, "unit": "µg/mL"}, {"measurement": "maximum adiponectin stimulation", "setting": "LPS/3T3-L1 adipocytes [1]; […]", "result": 9, "unit": "%"}, {"measurement": "Maximum inhibition of IL-6 secretion, % Inhibition", "setting": "LPS/3T3-L1 adipocytes [4]; 5.00 μg/ml", "result": "53* %"}]}
{"molecule": "CCc1ccc(CCOc2ccc(CC3SC(=O)NC3=O)cc2)nc1", "note": "(stereo not drawn) [Pioglitazone, pioglitazone]", "values": [{"measurement": "increase of adiponectin secretion in the presence of TNFα", "setting": "[3]; 10 ng TNFα/ml", "result": 80, "unit": "%"}, {"measurement": "Adiponectin Index (relative maximum adiponectin secretion)", "setting": "[3]; 10 ng TNFα/ml, [Adiponectin]Test/[Adiponectin]TNFα control", "result": 1.47}, {"measurement": "Adiponectin Index Observed", "setting": "[3]; 1.0 μg/ml, TNFα/3T3-L1, curcumin/XN combinations, indexed to TNFα control", "result": 1.80}, {"measurement": "IL-6 Index at maximum inhibition", "setting": "LPS/3T3-L1 adipocytes [4]; 5.00 μg/ml (dose of maximum inhibition)", "result": "0.37*"}, {"measurement": "inhibition of the amount of nuclear NF-kBp65", "setting": "NF-kBp65", "result": "did not inhibit"}]}
{"molecule": "O=C(O)c1ccccc1O", "note": "[salicylic acid]", "values": [{"measurement": "induction of adiponectin secretion", "setting": "LPS/3T3-L1 adipocytes [1]", "result": "failed to induce adiponectin secretion"}, {"measurement": "IL-6 Index at maximum inhibition", "setting": "LPS/3T3-L1 adipocytes [4]; 50.0 μg/ml (dose of maximum inhibition)", "result": "0.52*"}]}
{"molecule": "Beta acids", "values": [{"measurement": "Percent PGE2 Inhibition", "setting": "[5]", "result": 83, "unit": "%"}]}
